From the supplement of paper PMC12463676, “Small-molecule dissolution of stress granules by redox modulation benefits ALS models” (Nature Chemical Biology, 2025)

What was measured:
lipoamide = compound: NC(=O)CCCCC1CCSS1 [lipoamide]; assay: thermal stability z-score vs DMSO; higher = more thermally stabilized by treatment; details: HeLa, lipoamide concentration 100 µM
Description: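 Cellular thermal proteome profiling in HeLa cells. Cells were treated with 100 µM lipoamide for 1 h, with or without 1 mM arsenate for a further 1 h, then heated to ten temperatures (37-66.3 °C), and soluble protein was quantified by TMT mass spectrometry relative to 0.1% DMSO controls. The thermal stability score (sum of log2 fold changes minus the abundance score) was transformed to a z-score; mean of n = 3 experiments.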

potassium arsenate = compound: O=[As]([O-])(O)O.[K+] [potassium arsenate]; assay: as above; details: HeLa; arsenate concentration 1 mM
Description: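 Cellular thermal proteome profiling in HeLa cells treated with 1 mM arsenate for 1 h (DMSO pretreatment), heated to ten temperatures (37-66.3 °C). Soluble protein was quantified by TMT mass spectrometry relative to DMSO controls; the thermal stability score was transformed to a z-score; mean of n = 3 experiments.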

[1] = arsenate co-treatment: 1 mM arsenate 1 h
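Further: each temperature applied for 3 min, abundance score taken as mean log2 fold change at the two lowest temperatures, z-score obtained by mean subtraction and division by SD.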

ZYG11B (UniProt Q9C0D3)
Chain of UniProt Q9C0D3 (Q9C0D3 whole entry): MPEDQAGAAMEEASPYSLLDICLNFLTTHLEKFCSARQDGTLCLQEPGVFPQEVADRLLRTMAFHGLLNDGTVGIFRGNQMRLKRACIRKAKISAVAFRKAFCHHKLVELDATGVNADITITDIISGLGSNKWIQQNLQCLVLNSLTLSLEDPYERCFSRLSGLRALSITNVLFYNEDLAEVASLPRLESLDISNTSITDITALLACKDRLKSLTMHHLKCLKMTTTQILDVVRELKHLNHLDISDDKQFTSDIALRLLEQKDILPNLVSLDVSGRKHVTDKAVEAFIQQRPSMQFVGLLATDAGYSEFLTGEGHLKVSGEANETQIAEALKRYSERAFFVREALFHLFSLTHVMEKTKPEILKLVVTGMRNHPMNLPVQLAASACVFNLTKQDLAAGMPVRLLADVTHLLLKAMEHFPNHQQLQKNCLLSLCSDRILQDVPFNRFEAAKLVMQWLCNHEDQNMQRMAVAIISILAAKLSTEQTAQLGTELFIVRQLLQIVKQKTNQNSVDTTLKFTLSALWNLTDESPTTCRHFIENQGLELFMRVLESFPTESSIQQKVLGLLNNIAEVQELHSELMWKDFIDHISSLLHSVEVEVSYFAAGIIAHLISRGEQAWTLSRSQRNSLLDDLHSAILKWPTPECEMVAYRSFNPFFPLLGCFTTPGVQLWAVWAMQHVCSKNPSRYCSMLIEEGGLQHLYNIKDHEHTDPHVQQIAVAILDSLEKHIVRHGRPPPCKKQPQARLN
thermal stability z-score (lipoamide; [1]): -0.0727 | thermal stability z-score (lipoamide; arsenate co-treatment: none): -0.16 | thermal stability z-score (potassium arsenate): -0.142

ZYX (UniProt Q15942)
Chain of UniProt Q15942 (Q15942 whole entry): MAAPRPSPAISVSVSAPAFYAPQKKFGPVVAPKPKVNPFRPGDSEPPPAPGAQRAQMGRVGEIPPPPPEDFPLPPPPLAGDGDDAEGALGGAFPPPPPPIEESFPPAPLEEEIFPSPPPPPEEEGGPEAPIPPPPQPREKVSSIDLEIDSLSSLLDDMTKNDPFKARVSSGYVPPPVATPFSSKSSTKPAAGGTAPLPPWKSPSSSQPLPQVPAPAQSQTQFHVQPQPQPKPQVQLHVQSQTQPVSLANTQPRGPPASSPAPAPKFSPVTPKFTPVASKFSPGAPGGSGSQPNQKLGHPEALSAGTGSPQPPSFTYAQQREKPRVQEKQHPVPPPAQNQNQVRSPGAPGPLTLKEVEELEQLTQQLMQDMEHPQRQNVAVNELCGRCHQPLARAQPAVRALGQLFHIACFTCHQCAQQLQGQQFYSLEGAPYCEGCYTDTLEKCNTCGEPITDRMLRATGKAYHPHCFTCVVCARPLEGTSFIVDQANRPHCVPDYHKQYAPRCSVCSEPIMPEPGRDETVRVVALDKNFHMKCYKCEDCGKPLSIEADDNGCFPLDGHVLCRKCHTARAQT
thermal stability z-score (lipoamide; [1]): 0.568 | thermal stability z-score (lipoamide; arsenate co-treatment: none): 0.672 | thermal stability z-score (potassium arsenate): -0.00636

ZZEF1 (UniProt O43149)
Chain of UniProt O43149 (O43149 whole entry): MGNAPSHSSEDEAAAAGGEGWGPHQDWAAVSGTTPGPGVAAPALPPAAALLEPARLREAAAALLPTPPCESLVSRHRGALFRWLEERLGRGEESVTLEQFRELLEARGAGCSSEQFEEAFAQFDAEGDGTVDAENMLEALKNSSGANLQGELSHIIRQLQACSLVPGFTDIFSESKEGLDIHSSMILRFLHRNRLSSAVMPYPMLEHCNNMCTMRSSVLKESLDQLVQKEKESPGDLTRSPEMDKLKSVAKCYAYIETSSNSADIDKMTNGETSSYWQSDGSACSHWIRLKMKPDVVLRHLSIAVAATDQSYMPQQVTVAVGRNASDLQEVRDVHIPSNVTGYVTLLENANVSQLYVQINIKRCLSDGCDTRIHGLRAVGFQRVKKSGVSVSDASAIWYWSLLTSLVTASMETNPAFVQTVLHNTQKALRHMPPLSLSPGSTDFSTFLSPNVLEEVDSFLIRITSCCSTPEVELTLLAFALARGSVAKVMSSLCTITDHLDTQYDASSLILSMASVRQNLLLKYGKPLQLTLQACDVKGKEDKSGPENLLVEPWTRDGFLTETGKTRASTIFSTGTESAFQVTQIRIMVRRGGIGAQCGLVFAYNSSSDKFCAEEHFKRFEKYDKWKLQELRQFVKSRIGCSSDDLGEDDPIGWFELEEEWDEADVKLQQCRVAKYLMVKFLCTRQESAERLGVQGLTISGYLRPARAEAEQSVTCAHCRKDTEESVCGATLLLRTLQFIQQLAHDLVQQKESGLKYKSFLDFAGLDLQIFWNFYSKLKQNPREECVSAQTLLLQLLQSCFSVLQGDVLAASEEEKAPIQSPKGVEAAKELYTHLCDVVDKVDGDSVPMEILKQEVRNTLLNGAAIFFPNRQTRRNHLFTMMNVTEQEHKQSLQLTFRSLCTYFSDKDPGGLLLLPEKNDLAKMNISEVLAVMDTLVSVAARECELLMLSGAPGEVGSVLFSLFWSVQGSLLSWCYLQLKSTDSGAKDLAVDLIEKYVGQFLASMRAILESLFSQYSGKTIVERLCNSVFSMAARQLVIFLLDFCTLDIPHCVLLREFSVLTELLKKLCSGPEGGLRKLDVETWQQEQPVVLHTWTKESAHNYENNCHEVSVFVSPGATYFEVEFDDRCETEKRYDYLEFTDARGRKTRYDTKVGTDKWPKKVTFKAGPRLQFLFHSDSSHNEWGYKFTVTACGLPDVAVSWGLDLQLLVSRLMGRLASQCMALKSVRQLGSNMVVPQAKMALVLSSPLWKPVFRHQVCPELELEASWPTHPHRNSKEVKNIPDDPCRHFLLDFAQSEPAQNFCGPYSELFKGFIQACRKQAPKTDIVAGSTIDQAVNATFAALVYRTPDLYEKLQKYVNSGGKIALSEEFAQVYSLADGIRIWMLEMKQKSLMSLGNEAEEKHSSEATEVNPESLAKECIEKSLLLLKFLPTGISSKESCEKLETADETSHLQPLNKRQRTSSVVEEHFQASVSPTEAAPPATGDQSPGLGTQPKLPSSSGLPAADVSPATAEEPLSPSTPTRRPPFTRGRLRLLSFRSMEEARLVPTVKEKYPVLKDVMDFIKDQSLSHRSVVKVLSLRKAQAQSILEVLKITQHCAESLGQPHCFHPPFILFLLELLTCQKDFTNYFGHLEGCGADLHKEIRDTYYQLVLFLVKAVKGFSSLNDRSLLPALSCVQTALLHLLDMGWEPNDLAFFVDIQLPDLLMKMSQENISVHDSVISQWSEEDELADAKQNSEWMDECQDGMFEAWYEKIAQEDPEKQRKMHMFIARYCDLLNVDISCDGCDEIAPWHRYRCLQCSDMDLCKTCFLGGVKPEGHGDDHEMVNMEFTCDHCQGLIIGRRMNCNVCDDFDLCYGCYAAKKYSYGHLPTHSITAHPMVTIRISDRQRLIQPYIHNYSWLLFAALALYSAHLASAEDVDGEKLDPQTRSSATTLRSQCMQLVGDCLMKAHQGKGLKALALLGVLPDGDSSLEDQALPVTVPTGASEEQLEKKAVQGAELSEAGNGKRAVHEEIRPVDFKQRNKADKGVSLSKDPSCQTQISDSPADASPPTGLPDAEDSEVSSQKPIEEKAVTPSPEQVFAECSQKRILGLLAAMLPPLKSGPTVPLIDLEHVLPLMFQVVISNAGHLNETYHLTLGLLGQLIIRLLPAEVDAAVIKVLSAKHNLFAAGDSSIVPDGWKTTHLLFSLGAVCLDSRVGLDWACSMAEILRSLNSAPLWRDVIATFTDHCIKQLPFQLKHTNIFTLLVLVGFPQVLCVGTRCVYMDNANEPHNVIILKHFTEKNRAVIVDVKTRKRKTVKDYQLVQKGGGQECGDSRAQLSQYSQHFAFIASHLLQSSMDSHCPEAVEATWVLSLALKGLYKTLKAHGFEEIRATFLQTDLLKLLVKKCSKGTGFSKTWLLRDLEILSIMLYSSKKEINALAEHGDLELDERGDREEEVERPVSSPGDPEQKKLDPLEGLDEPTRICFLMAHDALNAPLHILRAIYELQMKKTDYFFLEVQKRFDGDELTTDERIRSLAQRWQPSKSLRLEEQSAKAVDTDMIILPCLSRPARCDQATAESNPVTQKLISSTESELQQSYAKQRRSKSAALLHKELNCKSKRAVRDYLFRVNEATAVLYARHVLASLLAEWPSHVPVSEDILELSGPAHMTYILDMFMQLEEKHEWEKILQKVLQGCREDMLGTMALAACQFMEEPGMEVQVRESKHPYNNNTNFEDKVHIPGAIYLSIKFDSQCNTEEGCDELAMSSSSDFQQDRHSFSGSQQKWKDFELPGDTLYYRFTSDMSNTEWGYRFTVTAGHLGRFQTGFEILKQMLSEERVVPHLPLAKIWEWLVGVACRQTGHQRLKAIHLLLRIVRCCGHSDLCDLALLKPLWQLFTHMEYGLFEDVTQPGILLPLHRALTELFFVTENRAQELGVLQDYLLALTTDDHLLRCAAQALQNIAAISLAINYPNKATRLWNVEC
thermal stability z-score (lipoamide; [1]): 0.044 | thermal stability z-score (lipoamide; arsenate co-treatment: none): 0.201 | thermal stability z-score (potassium arsenate): 0.0396
